Assay [1] addresses Dihydrofolate reductase (Staphylococcus aureus, UniProt P0A017). Put plainly: (§1) Inhibition Assay: Antibacterial activity as measured by the minimal inhibitory concentrations (MIC) and minimal bactericidal concentrations of compounds are well known (see., e.g., National Committee for Clinical Laboratory Standards 2000 Performance standards for antimicrobial disk susceptibility tests: approved standard, 7th ed. M2-A7, vol. 20, no. 1, Committee for Clinical Laboratory Standards, Wayne, Pa.).

Assay [2] deals with T1, Dihydrofolate reductase (Homo sapiens, UniProt P00374).
T1 sequence (P00374 whole entry): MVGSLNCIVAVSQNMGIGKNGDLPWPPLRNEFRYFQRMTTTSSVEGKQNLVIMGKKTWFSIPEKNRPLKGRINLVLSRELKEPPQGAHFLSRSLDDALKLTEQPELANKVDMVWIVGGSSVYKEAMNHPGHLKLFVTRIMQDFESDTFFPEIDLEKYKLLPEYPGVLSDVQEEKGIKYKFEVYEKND
The assay is described as §1.

SMILES strings stand for the structures.

Data on one molecule can be found in ChEMBL document CHEMBL3638993, “Dihydrofolate reductase inhibitors” (2014).

For orientation: Ki means the equilibrium dissociation constant of an inhibitor or competing ligand from its target. Low values mean higher affinity, high ones lower affinity.

Chain of Dihydrofolate reductase (Staphylococcus aureus, UniProt P0A017) (P0A017 whole entry): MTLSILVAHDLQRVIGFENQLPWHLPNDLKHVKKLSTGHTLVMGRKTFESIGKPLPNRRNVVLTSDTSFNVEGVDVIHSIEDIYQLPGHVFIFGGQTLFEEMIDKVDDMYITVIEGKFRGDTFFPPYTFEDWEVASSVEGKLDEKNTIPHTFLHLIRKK

On to `Cc1c(C(=O)OC(C)(C)C)nc(-c2cccs2)n1-c1ccc2c(N)nc(N)nc2c1`, for which the inhibition constant (Ki) on Dihydrofolate reductase [1] was found to be 0.2 nM; at Dihydrofolate reductase [2] it was 1910 nM.
